From patent US7807781B2, “Inhibitors of serine protease activity and their use in methods and compositions for treatment of viral infections” (The Regents of the University of Colorado, priority 1999, dated 2010)

B1: UTI: Human urinary trypsin inhibitor, a protein indistinguishable from ITI (protein, UniProt P02760 206-352, looked up)
Inter-alpha-trypsin inhibitor …: AVLPQEEEGSGGGQLVTEVTKKEDSCQLGYSAGPCMGMTSRYFYNGTSMACETFQYGGCMGNGNNFVTEKECLQTCRTVAACNLPIVRGPCRAFIQLWAFDAVKGKCVLFPYGGCQGNGNKFYSEKECREYCGVPGDGDEELLRFSN
modifications: Inter-alpha-trypsin inhibitor light chain

Legend:
[1] = system: HIV-1 production in U1 cells; assay: U1 monocytic cell assay, IL-18-induced HIV-1 p24 antigen; format: cell-based
Source text: U1 monocytic cell assay. U1 cells are obtained from the AIDS Research and Reference Reagent Program, National Institute of Allergy and Infectious Diseases, NIH. U1 cells are maintained in T-175 polystyrene flasks (Falcon, Becton Dickinson, Franklin Lakes, N.J.) in medium and used when in log phase growth. Cells are counted in a hemacytometer, examined for viability by Trypan blue exclusion (>95% for all experiments) and resuspended in fresh medium at 2×10^6 per ml. Two-hundred fifty […] are added to wells of 24-well polystyrene tissue culture plates (Falcon), followed by the addition of medium or AAT to produce the final concentration to be tested in a volume of […]. After 1.0 hr of incubation (37° C., 5% CO2), 50 ml of medium (control) or stimulus diluted in medium are added to wells to produce the final concentration of stimulus to be tested. The final culture volumes are […] and contained 1×10^6 cells per ml. After 48 hr of incubation (37° C. and 5% CO2) 50 ml of 10% (vol/vol) Triton-X-100 (Fisher Scientific, Fair Lawn, N.J.) is added to each culture (final concentration of 1% vol/vol), and cultures are frozen and thawed once. This is followed by assay for HIV-1 p24 antigen by ELISA with a lower limit of detection of 31 pg/ml (NCI-Frederick Cancer Research and Development Center, Frederick, Md.). The disruption of cells due to the addition of Triton-X-100 and the freeze-thaw cycle produced cell lysates and enabled assessment of total (secreted and cell-associated) production of p24 antigen.
Data are presented as means±SEM. Group means are compared by ANOVA using Fisher's least significant difference. For data expressed as percent change, the values for p24 in control cultures (medium alone) are subtracted from those for each culture-containing stimulus. The p24 concentrations in cultures conducted in the presence of stimulus alone are set at 100%. Percent p24 in cultures containing stimulus and AAT are calculated by dividing the measured p24 by that present in cultures containing stimulus alone. The resultant fraction is expressed as a percent.
The U1 cell line is derived from human monocytic U937 cells into which 2 copies of HIV-1 provirus are incorporated into host genome. Exposing U1 cells to pro-inflammatory cytokines such as IL-18, IL-1, IL-6 and TNF, phorbol esters or hyperosmolarity results in the induction of HIV-1 as assessed by p24 antigen. Stimulation of U1 cells with 0.5 nM IL-18 induced large amounts of p24 antigen after 48 hr of incubation in 3 separate experiments. U1 cells cultured in medium alone (control) contained a mean of 41.3±11.5 pg/ml p24 antigen, which is increased 150-fold to 6,235±1,775 pg/ml p24 following stimulation with IL-18. […] At 1, 2 and 3 mg/ml AAT, the percent reductions observed compared to stimulation with IL-18 alone are 65±1.8, 93±3.0 and 98±1%, respectively.

[2] = system: NF-κB; assay: IL-18-induced NF-κB expression; format: cell-based; conditions: compared with IL-18 alone (lane 4)
[3] = system: HIV-1 strain A018A in MAGI-CCR-5 cells; format: cell-based; conditions: compared with FVYLI (FIG. 4); alone or in combination; not shown
[4] = system: HIV-infected CCRF-CEM and uninfected Molt-4 cells; conditions: cited from earlier work

Molecule | effect on HIV production in MAGI cells [3] | also measured
Cc1cccc(Cc2nnc(C(=O)C(NC(=O)[C@@H]3CCCN3C(=O)[C@@H](NC(=O)OCc3ccccc3)C(C)C)C(C)C)o2)c1 (stereo partly shown) [P3 inh] |  | anti-HIV effect ([1]; same experimental condition as in Example 1 (FIG. 11)): significant anti-HIV effect; IL-18-induced NF-κB expression [2]: reduced
AVFLM: short peptide related to C-terminal pentapeptide of AAT | more or less similar effect | 
FAFLM: short peptide related to C-terminal pentapeptide of AAT | more or less similar effect | 
FIIMI: short peptide related to C-terminal pentapeptide of AAT | more or less similar effect | 
FLFAV: short peptide related to C-terminal pentapeptide of AAT | more or less similar effect | 
FLFCI: short peptide related to C-terminal pentapeptide of AAT | more or less similar effect | 
FLFFI: short peptide related to C-terminal pentapeptide of AAT | more or less similar effect | 
FLFLI: short peptide related to C-terminal pentapeptide of AAT | more or less similar effect | 
FLFVL: short peptide related to C-terminal pentapeptide of AAT | more or less similar effect | 
FLFVV: short peptide related to C-terminal pentapeptide of AAT | more or less similar effect | 
FLMFI: short peptide related to C-terminal pentapeptide of AAT | more or less similar effect | 
FLMII: short peptide related to C-terminal pentapeptide of AAT | more or less similar effect | 
FLVFI: short peptide related to C-terminal pentapeptide of AAT | more or less similar effect | 
FMLLI: short peptide related to C-terminal pentapeptide of AAT | more or less similar effect | 
FVALM: short peptide related to C-terminal pentapeptide of AAT | more or less similar effect | 
FVFAM: short peptide related to C-terminal pentapeptide of AAT | more or less similar effect | 
FVFLA: short peptide related to C-terminal pentapeptide of AAT | more or less similar effect | 
FVFLM: short peptide related to C-terminal pentapeptide of AAT | more or less similar effect | 
FVYLI: carboxyterminal peptide derived but not necessarily identical to a respective C-terminal pentapeptide from AAT | more or less similar effect | 
Prolastin: commercially available purified variant of AAT sold by Bayer, used as control AAT preparation |  | anti-HIV activity ([1]; doses comparable to the composition of the invention (FIG. 6)): fails to display anti-HIV activity
B1 |  | concentration range of dose-dependent inhibition of syncytium formation [4]: 0.1 to 1 mM
